Results published in the CheMixHub viscosity set.

Experiment: xn = mol fraction of the nth substance listed

ClC(Cl)(Cl)Cl + c1ccccc1
Conditions	viscosity [mPa·s]
303.15 K, 101 kPa, x2 = 0.1022	0.8407
303.15 K, 101 kPa, x2 = 0.2062	0.8084
303.15 K, 101 kPa, x2 = 0.3055	0.7825
303.15 K, 101 kPa, x2 = 0.4022	0.7545
303.15 K, 101 kPa, x2 = 0.5051	0.7209
303.15 K, 101 kPa, x2 = 0.604	0.688
303.15 K, 101 kPa, x2 = 0.7006	0.6616
303.15 K, 101 kPa, x2 = 0.8004	0.6348
303.15 K, 101 kPa, x2 = 0.8991	0.6047
303.25 K, 101 kPa, x1 = 0.8	0.8132
303.35 K, 101 kPa, x1 = 0.6	0.7543
303.65 K, 101 kPa, x1 = 0.2	0.6404
308 K, 101 kPa, x2 = 0.189	0.7518
308 K, 101 kPa, x2 = 0.2701	0.7355
308 K, 101 kPa, x2 = 0.344	0.7202
308 K, 101 kPa, x2 = 0.4734	0.6919
308 K, 101 kPa, x2 = 0.583	0.6652
308 K, 101 kPa, x2 = 0.6318	0.6524
308 K, 101 kPa, x2 = 0.6771	0.6391
308 K, 101 kPa, x2 = 0.7194	0.627
308 K, 101 kPa, x2 = 0.7588	0.6159
308 K, 101 kPa, x2 = 0.8303	0.5939
308 K, 101 kPa, x2 = 0.8935	0.5753
308 K, 101 kPa, x2 = 0.9224	0.5661
308 K, 101 kPa, x2 = 0.9497	0.5573
308.15 K, 101 kPa, x2 = 0.1022	0.7881
308.15 K, 101 kPa, x2 = 0.2062	0.758
308.15 K, 101 kPa, x2 = 0.3055	0.732
308.15 K, 101 kPa, x2 = 0.4022	0.7062
308.15 K, 101 kPa, x2 = 0.5051	0.6748
308.15 K, 101 kPa, x2 = 0.604	0.6434
308.15 K, 101 kPa, x2 = 0.7006	0.62
308.15 K, 101 kPa, x2 = 0.8004	0.5929
308.15 K, 101 kPa, x2 = 0.8991	0.5655
312.15 K, 101 kPa, x1 = 0.5	0.6431
312.35 K, 101 kPa, x1 = 0.4	0.6172
312.35 K, 101 kPa, x1 = 0.6	0.6695
312.35 K, 101 kPa, x1 = 0.8	0.7173
312.65 K, 101 kPa, x1 = 0.2	0.5692
313.15 K, 101 kPa, x2 = 0.1022	0.7415
313.15 K, 101 kPa, x2 = 0.2062	0.7096
313.15 K, 101 kPa, x2 = 0.3055	0.6862
313.15 K, 101 kPa, x2 = 0.4022	0.659
313.15 K, 101 kPa, x2 = 0.5051	0.6313
313.15 K, 101 kPa, x2 = 0.604	0.6024
313.15 K, 101 kPa, x2 = 0.7006	0.58
313.15 K, 101 kPa, x2 = 0.8004	0.5544
313.15 K, 101 kPa, x2 = 0.8991	0.5291
318 K, 101 kPa, x2 = 0.189	0.6483
318 K, 101 kPa, x2 = 0.2701	0.6346
318 K, 101 kPa, x2 = 0.344	0.6217
318 K, 101 kPa, x2 = 0.4734	0.599
318 K, 101 kPa, x2 = 0.583	0.5775
318 K, 101 kPa, x2 = 0.6318	0.5665
318 K, 101 kPa, x2 = 0.6771	0.5566
318 K, 101 kPa, x2 = 0.7194	0.5469
318 K, 101 kPa, x2 = 0.7588	0.5373
318 K, 101 kPa, x2 = 0.8303	0.5209
318 K, 101 kPa, x2 = 0.8935	0.5053
318 K, 101 kPa, x2 = 0.9224	0.4992
318 K, 101 kPa, x2 = 0.9497	0.492
318 K, 101.3 kPa, x1 = 0.1399	0.5125
318 K, 101.3 kPa, x1 = 0.2838	0.5478
318 K, 101.3 kPa, x1 = 0.4793	0.6011
318 K, 101.3 kPa, x1 = 0.6289	0.6411
318 K, 101.3 kPa, x1 = 0.8405	0.6993
322.25 K, 101 kPa, x1 = 0.2	0.5085
